Literature values in patent US10596124B2, “Lipid nanoparticle compositions and methods as carriers of cannabinoids in standardized precision-metered dosage forms” (NanoSphere Health Sciences, LLC, priority 2015, dated 2020).

Details: intranasal

SMILES: C=C(C)[C@@H]1CCC(C)=C[C@H]1c1c(O)cc(CCCCC)cc1O [CBD, cannabidiol]
- time to absorption into the systemic circulation: ≤ 10 min
